From US9227971B2, “Pyrazolo[1,5-a]pyrimidine compounds as mTOR inhibitors” (Merck Sharp & Dohme Corp., priority 2010, dated 2016)
Where two headings read alike, the source gives them in different places.

Assays:
[1] = test system: phosphorylated AKT Ser473 (pAKT S473), mTORC2 activity, PC3 cells; assay: mTOR target engagement assay, immunofluorescent cell-based, pAKT S473 readout (mTORC2 activity); details: Homo sapiens
Procedure, shortened: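 After blocking, cells were stained overnight at 4 °C with anti-pAKT S473 antibody, then a fluorescent secondary; inhibition was read as reduced fluorescence intensity.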

[2] = test system: phosphorylated 4E-BP1 Thr37/46 (p4E-BP1 Thr37/46), mTORC1 activity, PC3 cells; assay: mTOR target engagement assay, immunofluorescent cell-based, p4E-BP1 Thr37/46 readout (mTORC1 activity); details: Homo sapiens, read-out: p4E-BP1 Thr37/46 IC50
Procedure, shortened: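 Cell-based immunofluorescence in PC3 cells: serially diluted compounds (0.25% DMSO, 5% FBS) applied for ninety minutes at 37° C before fixation and overnight 4° C staining of p4E-BP1 Thr37/46. Untreated DMSO wells set maximal phosphorylation; IC50 obtained by logistic fitting.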

[3] = PC-3, PC3 cells, compound treatment ninety minutes at 37° C.

SMILES | IC50 ([1]; PC-3, Table 3-1, PC3 cells) [nM] | IC50 ([2]; PC-3, Table 3-1, PC3 cells) [nM] | IC50 [1, 3] [nM] | IC50 [2, 3] [nM] | further results
CS(=O)(=O)c1c([C@H]2CC3CC[C@H](C2)N3C(=O)c2cnn[nH]2)nc2c(-c3ccc(-c4c(F)cccc4F)nc3)cnn2c1N [Compound 3.173, ((1R,3s,5S)-3-(7-amino-3-(6-(2,6-difluorophenyl)pyridin-3-yl)-6-(methylsulfonyl)pyrazolo[1,5-a]pyrimidin-5-yl)-8-azabicyclo[3.2.1]octan-8-yl)(1H-1,2,3-triazol-5-yl)methanone] | 100 to 1000 | 100 to 1000 | – | – | –
COCCOCc1ccc(-c2cnn3c(N)c(C(C)=O)c([C@@H]4C[C@H]5CC[C@@H](C4)N5C(=O)c4nnc[nH]4)nc23)cn1 [Compound 7.31, 1-(5-((1R,3s,5S)-8-(4H-1,2,4-triazole-3-carbonyl)-8-azabicyclo[3.2.1]octan-3-yl)-7-amino-3-(6-((2-methoxyethoxy)methyl)pyridin-3-yl)pyrazolo[1,5-a]pyrimidin-6-yl)ethanone] | – | – | 1000 to 10000 | 1000 to 10000 | –
CS(=O)(=O)c1c([C@@H]2C[C@H]3CC[C@@H](C2)N3C(=O)c2nnc[nH]2)nc2c(-c3cnc(-c4ccccc4)c(O)c3)cnn2c1N [Compound 3.22, ((1R,3s,5S)-3-(7-amino-3-(5-hydroxy-6-phenylpyridin-3-yl)-6-(methylsulfonyl)pyrazolo[1,5-a]pyrimidin-5-yl)-8-azabicyclo[3.2.1]octan-8-yl)(4H-1,2,4-triazol-3-yl)methanone] | 100 to 1000 | 1000 to 10000 | – | – | –
NC(=O)N1[C@@H]2CC[C@H]1C[C@H](c1nc3c(-c4ccc(-c5ncc[nH]5)nc4)cnn3c(N)c1C1CC1)C2 [Compound 6.31, (1R,3s,5S)-3-(3-(6-(1H-imidazol-2-yl)pyridin-3-yl)-7-amino-6-cyclopropylpyrazolo [1,5-a]pyrimidin-5-yl)-8-azabicyclo[3.2.1]octane-8-carboxamide] | – | – | – | – | IC50 ([1]; PC-3, Table 6-1, PC3 cells): 1 to 100 nM; IC50 ([2]; PC-3, Table 6-1, PC3 cells): 1 to 100 nM
COc1cc(F)cc2cc(-c3cnn4c(N)c(C(C)=O)c([C@@H]5C[C@H]6CC[C@@H](C5)N6C(=O)CO)nc34)cnc12 [Compound 1.1.183, 1-((1R,3r,5S)-3-(6-acetyl-7-amino-3-(6-fluoro-8-methoxyquinolin-3-yl)pyrazolo[1,5-a]pyrimidin-5-yl)-8-azabicyclo[3.2.1]octan-8-yl)-2-hydroxyethanone] | – | – | 1 to 100 | 100 to 1000 | –
CS(=O)(=O)c1c([C@@H]2C[C@H]3CC[C@@H](C2)N3C(=O)c2nnc[nH]2)nc2c(-c3ccc(-c4c(F)cccc4F)nc3)cnn2c1N [Compound 3.107, ((1R,3s,5S)-3-(7-amino-3-(6-(2,6-difluorophenyl)pyridin-3-yl)-6-(methylsulfonyl)pyrazolo[1,5-a]pyrimidin-5-yl)-8-azabicyclo[3.2.1]octan-8-yl)(4H-1,2,4-triazol-3-yl)methanone] | 1 to 100 | 1 to 100 | – | – | –
CC(=O)c1c([C@@H]2C[C@H]3CC[C@@H](C2)N3C(=O)C2(O)CC2)nc2c(-c3ccc(-c4ccccc4)nc3)cnn2c1N [Compound 1.1.48, 1-(7-amino-5-((1R,3s,5S)-8-(1-hydroxycyclopropanecarbonyl)-8-azabicyclo[3.2.1]octan-3-yl)-3-(6-phenylpyridin-3-yl)pyrazolo[1,5-a]pyrimidin-6-yl)ethanone] | – | – | 100 to 1000 | 100 to 1000 | –
CC(=O)c1c([C@@H]2C[C@H]3CC[C@@H](C2)N3C(=O)c2cncc(O)c2)nc2c(-c3ccc(-c4ccccc4)nc3)cnn2c1N [Compound 1.1.50, 1-(7-amino-5-((1R,3s,5S)-8-(5-hydroxynicotinoyl)-8-azabicyclo[3.2.1]octan-3-yl)-3-(6-phenylpyridin-3-yl)pyrazolo[1,5-a]pyrimidin-6-yl)ethanone] | – | – | 100 to 1000 | 100 to 1000 | –
CS(=O)(=O)c1c([C@@H]2C[C@H]3CC[C@@H](C2)N3C(=O)c2cn[nH]c2O)nc2c(-c3ccc(-c4ccccc4)nc3)cnn2c1N [Compound 3.94, ((1R,3s,5S)-3-(7-amino-6-(methylsulfonyl)-3-(6-phenylpyridin-3-yl)pyrazolo[1,5-a]pyrimidin-5-yl)-8-azabicyclo[3.2.1]octan-8-yl)(5-hydroxy-1H-pyrazol-4-yl)methanone] | 100 to 1000 | 100 to 1000 | – | – | –
